Laboratory results from US20080312435A1, “Imine Compound” (TAISHO PHARMACEUTICAL CO., LTD., priority 2004, published 2008).
pIC50: −log10 of the molar value.

How the values were obtained:
human CB2 receptor = target: T1, human CB2 receptor (Homo sapiens, UniProt P34972); assay: Human CB2 receptor binding inhibition test ([3H]CP-55,940, CHO membrane fractions); settings: [3H]CP-55,940, membrane fractions of CHO cells stably expressing human CB2 receptor, 25° C., 2 hours; read-out: CB2 IC50 (Inhibition of binding to human CB2 receptor)
T1 construct: expressed in transfected cells
T1 sequence (P34972 whole entry): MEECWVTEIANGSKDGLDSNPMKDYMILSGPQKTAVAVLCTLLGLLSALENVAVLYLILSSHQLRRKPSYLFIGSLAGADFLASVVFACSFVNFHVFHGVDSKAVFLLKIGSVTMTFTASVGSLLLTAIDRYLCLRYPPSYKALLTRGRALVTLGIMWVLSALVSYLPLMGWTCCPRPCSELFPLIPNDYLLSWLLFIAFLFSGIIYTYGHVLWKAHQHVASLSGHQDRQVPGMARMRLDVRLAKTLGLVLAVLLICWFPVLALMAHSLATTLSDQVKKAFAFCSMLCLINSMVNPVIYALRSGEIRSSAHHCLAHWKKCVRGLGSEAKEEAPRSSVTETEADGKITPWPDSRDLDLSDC
Excerpt: Human CB2 Receptor Binding Inhibition Test
First, cDNA sequence (Munro et al., Nature, 1993, 365, 61-65) encoding a human CB2 receptor was inserted in the forward direction in an animal-cell expression vector, pTARGET Vector (manufactured by Promega) at a region downstream of a CMV promoter. Host cells CHO-DHFR(−) were transfected with the obtained expression vector with the aid of Lipofectamine (manufactured by Invitrogen) to obtain cells capable of stably expressing the CB2 receptor.
After the filtrate was washed with an assay buffer containing 0.1% bovine serum albumin, the radioactivity on the glass filter was measured by a liquid scintillation counter. Nonspecific binding was measured in the presence of 2.0 μM CP-55,940 (manufactured by Tocris). 50% inhibitory concentration (IC50 value) of the test compound for the specific binding was obtained.

Compound	pIC50 (human CB2 receptor)	melting point
Cc1c(C(C)(C)C)s/c(=N\C(=O)c2cccc3cnccc23)n1CC1CC1 [compound 321]	8.64	109 to 110 °C
Cc1c(C(C)(C)C)s/c(=N\C(=O)c2ccccc2Cl)n1C [compound 119]	7.73	119 to 121 °C
Cc1ccc/c(=N\C(=O)c2cccc(C(F)(F)F)c2F)n1CC1CC1 [compound 25]	7.76	96 to 98 °C
Cc1c(Br)cc/c(=N\C(=O)c2cccc(C(F)(F)F)c2F)n1CC1CC1 [compound 41]	8.85	135 to 137 °C
Cc1ccc(F)cc1C(=O)/N=c1\sc(C(C)(C)C)c(C)n1C [compound 138]	7.92	145 to 146 °C
CC(C)(C)c1nn(CC2CC2)/c(=N/C(=O)c2cccc(C(F)(F)F)c2F)o1 [compound 514]	8.59	108 to 110 °C
Cc1s/c(=N\C(=O)CC(C)CC(C)(C)C)n(CC2CC2)c1C (racemic) [compound 99]	8.19	42 to 43 °C
COCCn1c(C)c(C(C)(C)C)s/c1=N\C(=O)c1cccc(C(F)(F)F)c1 [compound 344]	7.91	172 to 173 °C
CCOc1ncccc1C(=O)/N=c1\sc(C(C)(C)C)c(C)n1CC1CC1 [compound 310]	7.76	102 to 104 °C
CCn1c(C)c(C(C)(C)C)s/c1=N\C(=O)c1cc(F)ccc1C(F)(F)F [compound 164]	8.39	103 to 104 °C
CCn1c(C)c(C(C)(C)C)s/c1=N\C(=O)c1cc(F)c(F)cc1Cl [compound 159]	8.08	107 to 108 °C
CCn1c(C)c(C)s/c1=N\C(=O)c1cccc(C(F)(F)F)c1F [compound 70]	7.83	198 to 200 °C
Cc1c(C(C)(C)C)s/c(=N\C(=O)c2cc(F)c(Cl)cc2Cl)n1C [compound 136]	7.94	205 to 207 °C
O=C(/N=c1\cc(C(F)(F)F)ccn1CC1CC1)c1cccc(C(F)(F)F)c1F [compound 29]	8.07	85 to 86 °C
Cc1c(C(C)(C)C)s/c(=N\C(=O)c2cc(C(F)(F)F)ccc2F)n1CC1CC1 [compound 251]	8.47	113 to 115 °C
Cc1s/c(=N\C(=O)c2ccccc2C(F)(F)F)n(CC2CC2)c1C [compound 74]	8.34	125 to 127 °C
Cc1cccc(C(=O)/N=c2\sc(C(C)(C)C)c(C)n2CC2CC2)c1 [compound 179]	7.75	132 to 134 °C
Cc1ccc(C(=O)/N=c2\sc(C(C)(C)C)c(C)n2CC2CC2)c(F)c1F [compound 287]	7.87	122 to 124 °C
Cc1c(C(C)(C)C)s/c(=N\C(=O)c2cc(F)ccc2Cl)n1C [compound 130]	8.07	125 to 126 °C
Cc1c(C(C)(C)C)s/c(=N\C(=O)c2ccc(Br)cc2F)n1CC1CC1 [compound 227]	8.09	121 to 131 °C

Compound	pIC50 (human CB2 receptor)	melting point
Cc1c(C(C)(C)C)s/c(=N\C(=O)c2cccc(Cl)c2F)n1C [compound 129]	8.15	203 to 205 °C
COCCn1c(C)c(C(C)C)s/c1=N\C(=O)c1cccc(C(F)(F)F)c1F [compound 114]	8.80	132 to 134 °C
Cc1cs/c(=N\C(=O)c2cccc(C(F)(F)F)c2F)n1CC1CC1 [compound 63]	8.31	109 to 111 °C
O=C(/N=c1\sc2ncccc2n1CC1CC1)c1cccc(C(F)(F)F)c1F [compound 382]	7.77	156 to 158 °C
Cc1c(C(C)(C)C)s/c(=N\C(=O)c2cc(C(F)(F)F)ccc2OC(C)C)n1CC1CC1 [compound 269]	8.44	106 to 108 °C
CCn1c(C)c(C(C)(C)C)s/c1=N\C(=O)c1ccc(C)cc1Br [compound 163]	7.83	100 to 102 °C
Cc1c(C(C)(C)C)s/c(=N\C(=O)c2cccc([N+](=O)[O-])c2)n1CC1CC1 [compound 209]	8.85	87 to 89 °C
COCCn1c(C)c(C(C)(C)C)s/c1=N\C(=O)c1cc(F)ccc1C [compound 351]	8.66	106 to 107 °C
Cc1s/c(=N\C(=O)c2ccccc2I)n(CC2CC2)c1C [compound 78]	8.01	130 to 132 °C
Cc1c(Cl)s/c(=N\C(=O)c2cccc(C(F)(F)F)c2F)n1CC1CC1 [compound 365]	8.47	130 to 132 °C
Cc1c(C(C)(C)C)s/c(=N\C(=O)c2cc(F)ccc2Br)n1C [compound 131]	8.25	161 to 162 °C
Cc1c(C(C)(C)C)s/c(=N/C(=O)c2cnccc2C(F)(F)F)n1CC1CC1 [compound 298]	8.82	74 to 76 °C
CC(C)(C)c1c/c(=N\C(=O)c2cc(C(F)(F)F)ccc2F)n(CC2CC2)s1 [compound 58]	8.74	63 to 65 °C
CCn1c(C)c(C(C)(C)C)s/c1=N\C(=O)c1ccc(Cl)cc1C [compound 162]	7.92	125 to 126 °C
CCn1c(C)c(C(C)(C)C)s/c1=N\C(=O)c1cc(F)ccc1Br [compound 155]	8.37	115 to 116 °C
Cc1c/c(=N\C(=O)c2cccc(C(F)(F)F)c2F)n(CC2CC2)c(C)c1Br [compound 46]	8.92	121 to 122 °C
Cc1c(C(C)(C)C)s/c(=N\C(=O)c2cc(F)c(F)cc2F)n1CC1CC1 [compound 283]	8.23	78 to 79 °C
COCCOc1ccc(C(F)(F)F)cc1C(=O)/N=c1\sc(C(C)(C)C)c(C)n1CC1CC1 [compound 270]	9.15	108 to 110 °C
Cc1c(C(C)(C)C)s/c(=N\C(=O)c2cnnc3ccccc23)n1CC1CC1 [compound 325]	7.89	140 to 141 °C
COCCn1c(C)c(C(C)(C)C)s/c1=N\C(=O)c1cc(F)c(Cl)cc1Cl [compound 349]	8.72	161 to 163 °C

Compound	pIC50 (human CB2 receptor)	melting point
CCOc1ccc(C(F)(F)F)cc1C(=O)/N=c1\sc(C(C)(C)C)c(C)n1CC1CC1 [compound 268]	8.96	140 to 142 °C
Cc1cn(CC2CC2)/c(=N/C(=O)c2cccc(C(F)(F)F)c2F)s1 [compound 67]	8.52	129 to 130 °C
Cc1c(C(C)(C)C)s/c(=N\C(=O)c2ccc(Cl)cc2F)n1CC1CC1 [compound 226]	8.11	108 to 110 °C
COCCCn1c(C)c(C)s/c1=N\C(=O)c1cccc(C(F)(F)F)c1F [compound 105]	8.77	104 to 106 °C
COCCn1c(C)c(C(C)(C)C)s/c1=N\C(=O)c1cc(Br)ccc1F [compound 348]	8.42	95 to 97 °C
Cc1cccc(Cl)c1C(=O)/N=c1\sc(C(C)(C)C)c(C)n1CC1CC1 [compound 244]	8.49	159 to 160 °C
CCN(C)c1ccc(C(F)(F)F)cc1C(=O)/N=c1\sc(C(C)(C)C)c(C)n1CC1CC1 [compound 274]	7.88	101 to 103 °C
CSc1ncccc1C(=O)/N=c1\sc(C(C)(C)C)c(C)n1CC1CC1 [compound 312]	7.85	138 to 139 °C
Cc1c(C(C)C)s/c(=N\C(=O)c2cccc(C(F)(F)F)c2F)n1CC1CC1 [compound 113]	8.96	64 to 66 °C
Cc1c(C(C)(C)C)s/c(=N\C(=O)C2=C(NCCO)C=CC(C(F)(F)F)C2)n1CC1CC1 (stereo not drawn) [compound 272]	8.30	131 to 133 °C
Cc1c(C(C)(C)C)s/c(=N\C(=O)c2cc(F)c(F)cc2Cl)n1CC1CC1 [compound 284]	8.92	112 to 114 °C
Cc1nc(F)ccc1C(=O)/N=c1\sc(C(C)(C)C)c(C)n1CC1CC1 [compound 316]	8.28	67 to 69 °C
Cc1c(C(C)(C)C)s/c(=N\C(=O)C(F)(F)C(F)(F)C(F)(F)F)n1C [compound 149]	7.91	180 to 182 °C
CCn1c(C)c(C(C)(C)C)s/c1=N\C(=O)c1cc(C(F)(F)F)ccc1OC(F)F [compound 174]	7.93	95 to 97 °C
Cc1s/c(=N\C(=O)c2ccccc2Br)n(CC2CC2)c1C [compound 76]	7.84	114 to 116 °C
COc1cc(Cl)ccc1C(=O)/N=c1\sc(C(C)(C)C)c(C)n1C [compound 147]	8.02	117 to 119 °C
Cc1s/c(=N\C(=O)CC2CCCC2)n(CC2CC2)c1C [compound 100]	8.15	108 to 109 °C
CNc1ccccc1C(=O)/N=c1\sc(C(C)(C)C)c(C)n1CC1CC1 [compound 200]	7.82	158 to 159 °C
Cn1c(C(C)(C)C)c/c(=N\C(=O)c2cccc(Cl)c2Cl)n1CC1CCC1 [compound 481]	8.47	152.5 to 154 °C
O=C(/N=c1\ccc(F)cn1CC1CC1)c1cccc(C(F)(F)F)c1F [compound 37]	7.95	89 to 91 °C
